From PubChem BioAssay AID330 (DTP/NCI, 2004)
“And” between values parts separate entries of the source, which are not always exact repeats. Identical values can stand only once. Inconclusive results and toxic doses are left out.

System: P388 leukemia ip, CD2F1 mice, survival T/C
Assay: NCI In Vivo Anticancer Drug Screen. Data for tumor model P388 Leukemia (intraperitoneal) in CD2F1 (CDF1) mice
Details: endpoint: median survival time, higher = longer survival
In short: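 Mice carrying the transplanted tumor received test compound or vehicle. Survival was recorded in each group, and the value is the treated-group measurement divided by that of the vehicle-treated control group.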

[1] = dose: 50.0 mg/kg/injection, schedule: Q01DX009 (ip), vehicle: saline
[2] = dose: 100.0 mg/kg/injection, schedule: Q01DX009 (ip), vehicle: saline
[3] = dose: 200.0 mg/kg/injection, schedule: Q01DX009 (ip), vehicle: saline
[4] = dose: 50.0 mg/kg/injection, schedule: Q01DX005 (ip), vehicle: saline with Tween-80
[5] = dose: 100.0 mg/kg/injection, schedule: Q01DX005 (ip), vehicle: saline with Tween-80
[6] = dose: 50.0 mg/kg/injection, schedule: Q01DX005 (ip), vehicle: saline
[7] = dose: 100.0 mg/kg/injection, schedule: Q01DX005 (ip), vehicle: saline
[8] = dose: 200.0 mg/kg/injection, schedule: Q01DX005 (ip), vehicle: saline with Tween-80
[9] = dose: 100.0 mg/kg/injection, schedule: Q01DX009 (ip), vehicle: saline with Tween-80
[10] = dose: 200.0 mg/kg/injection, schedule: Q01DX009 (ip), vehicle: saline with Tween-80
[11] = dose: 60.0 mg/kg/injection, schedule: Q01DX005 (ip), vehicle: saline with Tween-80
[12] = dose: 120.0 mg/kg/injection, schedule: Q01DX005 (ip), vehicle: saline with Tween-80
[13] = dose: 240.0 mg/kg/injection, schedule: Q01DX005 (ip), vehicle: saline with Tween-80

Cc1ccc(S(=O)(=O)OCC(O)C(O)COS(=O)(=O)c2ccc(C)cc2)cc1 (centres undefined)
T/C [1]: 97 % of control | T/C [2]: 102 % of control and 113 % of control | T/C [3]: 101 % of control and 95 % of control

CCN1C=C(C(=O)OC)C(N)=C(C#N)/C1=C\C=C(/C#N)C(=O)OC
T/C (dose: 100.0 mg/kg/injection, schedule: Q04DX002 (ip), vehicle: Klucel (hydroxypropylcellulose) (HPC)): 92 % of control | T/C (dose: 200.0 mg/kg/injection, schedule: Q04DX002 (ip), vehicle: Klucel (hydroxypropylcellulose) (HPC)): 101 % of control | T/C (dose: 400.0 mg/kg/injection, schedule: Q04DX002 (ip), vehicle: Klucel (hydroxypropylcellulose) (HPC)): 89 % of control

CN(C)C1=C(Cl)C(=O)c2ccccc2C1=O
T/C (dose: 25.0 mg/kg/injection, schedule: Q01DX009 (ip), vehicle: Klucel (hydroxypropylcellulose) (HPC)): 100 % of control | T/C (dose: 50.0 mg/kg/injection, schedule: Q01DX009 (ip), vehicle: Klucel (hydroxypropylcellulose) (HPC)): 100 % of control | T/C (dose: 100.0 mg/kg/injection, schedule: Q01DX009 (ip), vehicle: Klucel (hydroxypropylcellulose) (HPC)): 97 % of control

FC(F)(F)S.[Ag]
T/C (dose: 12.5 mg/kg/injection, schedule: Q01DX009 (ip), vehicle: saline with Tween-80): 107 % of control | T/C (dose: 25.0 mg/kg/injection, schedule: Q01DX009 (ip), vehicle: saline with Tween-80): 116 % of control

CC(NNC(=S)N1CCCC1)c1cc2ccccc2cn1 (centres undefined)
T/C (dose: 25.0 mg/kg/injection, schedule: Q01DX005 (ip), vehicle: saline with Tween-80): 104 % of control and 108 % of control | T/C [4]: 110 % of control and 123 % of control | T/C [5]: 104 % of control

CCC(=O)NC(Cc1ccsc1)C(=O)O (centres undefined)
T/C (dose: 12.5 mg/kg/injection, schedule: Q01DX009 (ip), vehicle: saline): 103 % of control | T/C (dose: 25.0 mg/kg/injection, schedule: Q01DX009 (ip), vehicle: saline): 107 % of control | T/C [1]: 98 % of control | T/C [2]: 90 % of control | T/C [3]: 90 % of control

CCCCN=C(N=C(N)N)NCC
T/C [6]: 102 % of control | T/C [7]: 102 % of control

CCOC(=O)C(=CC=C(C(=O)OCC)C(=O)OCC)C(=O)OCC
T/C (dose: 100.0 mg/kg/injection, schedule: Q04DX002 (ip), vehicle: saline with Tween-80): 112 % of control | T/C (dose: 200.0 mg/kg/injection, schedule: Q04DX002 (ip), vehicle: saline with Tween-80): 113 % of control | T/C (dose: 400.0 mg/kg/injection, schedule: Q04DX002 (ip), vehicle: saline with Tween-80): 115 % of control

CCOC(=O)Cc1csc(=S)n1CC
T/C [4]: 98 % of control | T/C [5]: 98 % of control | T/C [8]: 98 % of control

CCC(C)N(C)/N=N/c1nc[nH]c1C(N)=O (centres undefined)
T/C [9]: 115 % of control | T/C (dose: 100.0 mg/kg/injection, schedule: Q04DX003 (ip), vehicle: saline with Tween-80): 95 % of control | T/C [10]: 105 % of control | T/C (dose: 200.0 mg/kg/injection, schedule: Q04DX003 (ip), vehicle: saline with Tween-80): 113 % of control | T/C (dose: 400.0 mg/kg/injection, schedule: Q04DX003 (ip), vehicle: saline with Tween-80): 113 % of control

C=CCOP1(OCC=C)=NP(OCC=C)(OCC=C)=NP(OCC=C)(OCC=C)=N1
T/C [4]: 96 % of control | T/C [5]: 100 % of control | T/C [8]: 102 % of control

C[CH2][Ge]([CH2]C)[CH2]C.C[CH2][Ge]([CH2]C)[CH2]C.C[CH2][Ge]([CH2]C)[S][Ge]([CH2]C)[CH2]C
T/C [11]: 96 % of control | T/C [12]: 100 % of control | T/C [13]: 99 % of control

CO/N=C(\C(O)C(C)O)C(OC)C1Cc2cc3cc(OC4CC(OC(C)=O)C(OC5CC(O)C(OC)C(C)O5)C(C)O4)cc(O)c3c(O)c2C(=O)C1OC1CC(OC2CC(OC3CC(C)(O)C(OC(=O)C(C)C)C(C)O3)C(O)C(C)O2)C(O)C(C)O1 (centres undefined)
T/C (dose: 0.13 mg/kg/injection, schedule: Q01DX005 (ip), vehicle: water): 116 % of control | T/C (dose: 0.25 mg/kg/injection, schedule: Q01DX005 (ip), vehicle: water): 116 % of control and 124 % of control | T/C (dose: 1.0 mg/kg/injection, schedule: Q01DX005 (ip), vehicle: water): 160 % of control | T/C (dose: 2.0 mg/kg/injection, schedule: Q01DX005 (ip), vehicle: water): 163 % of control

CN(C)c1ccc(/C=C/c2ccnc3ccccc23)cc1Cl
T/C (dose: 12.5 mg/kg/injection, schedule: Q04DX003 (ip), vehicle: saline with Tween-80): 105 % of control | T/C (dose: 25.0 mg/kg/injection, schedule: Q04DX003 (ip), vehicle: saline with Tween-80): 96 % of control | T/C (dose: 50.0 mg/kg/injection, schedule: Q04DX003 (ip), vehicle: saline with Tween-80): 95 % of control

c1ccc(C2Oc3ccccc3-c3nc4ccccc4cc32)cc1 (centres undefined)
T/C [4]: 106 % of control | T/C [5]: 111 % of control | T/C [8]: 100 % of control

O=C(CCN1C(=O)c2ccccc2C1=O)Nc1c(I)cc(I)c(C(=O)O)c1I
T/C [11]: 104 % of control | T/C [12]: 106 % of control | T/C [13]: 101 % of control

[O-][n+]1ccc(C2CO2)cc1 (centres undefined)
T/C [1]: 93 % of control | T/C [2]: 101 % of control | T/C [3]: 98 % of control

C=CCC(C(=O)OC)c1ccc(F)cc1 (centres undefined)
T/C (dose: 0.06 mg/kg/injection, schedule: Q01DX009 (ip), vehicle: saline): 111 % of control | T/C (dose: 0.13 mg/kg/injection, schedule: Q01DX009 (ip), vehicle: saline): 102 % of control | T/C (dose: 0.25 mg/kg/injection, schedule: Q01DX009 (ip), vehicle: saline): 101 % of control | T/C (dose: 1.0 mg/kg/injection, schedule: Q01DX009 (ip), vehicle: saline): 88 % of control

Fc1ccccc1C=NC12CC3CC(CC(C3)C1)C2
T/C (dose: 50.0 mg/kg/injection, schedule: Q01DX009 (ip), vehicle: saline with Tween-80): 100 % of control | T/C [9]: 102 % of control | T/C [10]: 108 % of control

CC(C)C(O)(C(=O)OCC1=CC[N+]2(C)CCC(O)C12)C(C)O (centres undefined)
T/C (dose: 25.0 mg/kg/injection, schedule: Q01DX005 (ip), vehicle: water): 103 % of control | T/C (dose: 50.0 mg/kg/injection, schedule: Q01DX005 (ip), vehicle: water): 108 % of control | T/C (dose: 100.0 mg/kg/injection, schedule: Q01DX005 (ip), vehicle: water): 103 % of control | T/C (dose: 200.0 mg/kg/injection, schedule: Q01DX005 (ip), vehicle: water): 100 % of control

CCC1CCC2CCOCN2C1 (centres undefined)
T/C [6]: 97 % of control | T/C [7]: 94 % of control

CCc1nc(N)nc(N)c1-c1ccc(N(C)Cc2ccccc2)c([N+](=O)[O-])c1
T/C (dose: 60.0 mg/kg/injection, schedule: Q01DX005 (ip), vehicle: Klucel (hydroxypropylcellulose) (HPC)): 116 % of control | T/C (dose: 120.0 mg/kg/injection, schedule: Q01DX005 (ip), vehicle: Klucel (hydroxypropylcellulose) (HPC)): 120 % of control | T/C (dose: 240.0 mg/kg/injection, schedule: Q01DX005 (ip), vehicle: Klucel (hydroxypropylcellulose) (HPC)): 185 % of control | T/C (dose: 480.0 mg/kg/injection, schedule: Q01DX005 (ip), vehicle: Klucel (hydroxypropylcellulose) (HPC)): 205 % of control

CC1(C)OC2OC(C3COC(=S)O3)C(O)C2O1 (centres undefined)
T/C (dose: 50.0 mg/kg/injection, schedule: Q01DX005 (ip), vehicle: Klucel (hydroxypropylcellulose) (HPC)): 98 % of control | T/C (dose: 100.0 mg/kg/injection, schedule: Q01DX005 (ip), vehicle: Klucel (hydroxypropylcellulose) (HPC)): 99 % of control | T/C (dose: 200.0 mg/kg/injection, schedule: Q01DX005 (ip), vehicle: Klucel (hydroxypropylcellulose) (HPC)): 103 % of control
